Measurements taken from PubChem BioAssay AID256 (DTP/NCI, 2004).
“And” between values parts separate entries of the source, which are not always exact repeats. Equal values may be shown once. Inconclusive results and toxic doses are left out. Rule for the calls: active = survival T/C of 150% or more; inactive = T/C below 125% in these data.

Tested on: CD2F1 mice, L1210 leukemia ip, survival T/C
Assay: NCI In Vivo Anticancer Drug Screen. Data for tumor model L1210 Leukemia (intraperitoneal) in CD2F1 (CDF1) mice
Settings: higher = longer survival
Summary of the method: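 Implant tumor; dose compound or vehicle; measure endpoint in both groups; report treated divided by control.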

[1] = endpoint: mean survival time, dose: 12.5 mg/kg/injection, schedule: Q01DX005 (ip), vehicle: distilled water + Tween-80
[2] = endpoint: mean survival time, dose: 25.0 mg/kg/injection, schedule: Q01DX005 (ip), vehicle: distilled water + Tween-80
[3] = endpoint: mean survival time, dose: 50.0 mg/kg/injection, schedule: Q01DX005 (ip), vehicle: distilled water + Tween-80
[4] = endpoint: mean survival time, dose: 100.0 mg/kg/injection, schedule: Q01DX005 (ip), vehicle: distilled water + Tween-80
[5] = endpoint: mean survival time, dose: 100.0 mg/kg/injection, schedule: Q04DX003 (ip), vehicle: saline with Tween-80
[6] = endpoint: mean survival time, dose: 200.0 mg/kg/injection, schedule: Q04DX003 (ip), vehicle: saline with Tween-80
[7] = endpoint: mean survival time, dose: 400.0 mg/kg/injection, schedule: Q04DX003 (ip), vehicle: saline with Tween-80
[8] = endpoint: mean survival time, dose: 100.0 mg/kg/injection, schedule: Q01DX009 (ip), vehicle: saline with Tween-80
[9] = endpoint: mean survival time, dose: 200.0 mg/kg/injection, schedule: Q01DX009 (ip), vehicle: saline with Tween-80
[10] = endpoint: mean survival time, dose: 400.0 mg/kg/injection, schedule: Q01DX009 (ip), vehicle: saline with Tween-80
[11] = endpoint: mean survival time, dose: 50.0 mg/kg/injection, schedule: Q01DX009 (ip), vehicle: saline with Tween-80
[12] = endpoint: mean survival time, dose: 100.0 mg/kg/injection, schedule: Q01DX001 (ip), vehicle: saline with Tween-80
[13] = endpoint: mean survival time, dose: 400.0 mg/kg/injection, schedule: Q01DX001 (ip), vehicle: saline with Tween-80

Measured: T/C

CCNCCNc1ccc(NCCNCC)c2c1C(=O)c1ccccc1C2=O
inactive: endpoint: mean survival time, dose: 2.0 mg/kg/injection, schedule: Q01DX009 (ip), vehicle: acid diluted with saline 122 % of control | endpoint: mean survival time, dose: 4.0 mg/kg/injection, schedule: Q01DX009 (ip), vehicle: acid diluted with saline 122 % of control and 123 % of control

Cn1c(=O)c2[nH]c(-c3cccnc3)nc2n(C)c1=O
inactive: [1] 92 % of control | [2] 98 % of control | [3] 98 % of control | [4] 98 % of control | endpoint: mean survival time, dose: 200.0 mg/kg/injection, schedule: Q01DX005 (ip), vehicle: distilled water + Tween-80 116 % of control

C=CCc1cc(OC)ccc1OC(C)=O
inactive: [5] 113 % of control | [6] 97 % of control | [7] 105 % of control

COc1ccccc1OC(=O)Nc1cc([N+](=O)[O-])ccc1C
inactive: [5] 89 % of control | [6] 97 % of control | [7] 87 % of control

O=C(OCC1OC(n2cnc3cc(Cl)c(Cl)cc32)C(OC(=O)c2ccccc2)C1OC(=O)c1ccccc1)c1ccccc1 (stereo not given)
inactive: [1] 95 % of control | [2] 101 % of control | [3] 93 % of control | [4] 95 % of control

COC(=O)C1(C)CCCC2(C)C1CCC13C=C(C(C)C)C(CC1C(=O)O)CC23 (stereo not given)
inactive: [5] 97 % of control | [6] 101 % of control | [7] 93 % of control

O=C(Nc1ccc2c3c(cccc13)CC2)c1cccc([N+](=O)[O-])c1
inactive: [8] 94 % of control | [9] 95 % of control | [10] 97 % of control

CCOC(=O)C(Cc1ccccc1C(=O)NC)c1ccccc1 (stereo not given)
inactive: [5] 94 % of control | [6] 94 % of control | endpoint: mean survival time, dose: 400.0 mg/kg/injection, schedule: Q01DX009 (ip), vehicle: saline sonified 92 % of control | [7] 100 % of control

O=C(CC(=Nc1ccccc1)c1ccccc1)c1ccccc1.O=C(CC(=Nc1ccccc1)c1ccccc1)c1ccccc1.[Cu]
inactive: endpoint: mean survival time, dose: 12.5 mg/kg/injection, schedule: Q01DX009 (ip), vehicle: saline with Tween-80 98 % of control | endpoint: mean survival time, dose: 25.0 mg/kg/injection, schedule: Q01DX009 (ip), vehicle: saline with Tween-80 93 % of control

O=c1oc(-c2ccc3c(c2)OCO3)nc2ccccc12
inactive: [5] 91 % of control | [6] 87 % of control

Cc1ccc(NC(=O)Nc2cccc(C(=O)O)c2)cc1[N+](=O)[O-]
inactive: [11] 94 % of control | [8] 98 % of control | [9] 98 % of control

c1ccc(OCCSc2ccccc2)cc1
inactive: endpoint: mean survival time, dose: 100.0 mg/kg/injection, schedule: Q01DX001 (ip), vehicle: saline 102 % of control | endpoint: mean survival time, dose: 200.0 mg/kg/injection, schedule: Q01DX001 (ip), vehicle: saline 104 % of control | endpoint: mean survival time, dose: 400.0 mg/kg/injection, schedule: Q01DX001 (ip), vehicle: saline 104 % of control

OC1COCOC1C1OCOCC1O (stereo not given)
inactive: endpoint: mean survival time, dose: 100.0 mg/kg/injection, schedule: Q04DX003 (ip), vehicle: saline 95 % of control | endpoint: mean survival time, dose: 200.0 mg/kg/injection, schedule: Q04DX003 (ip), vehicle: saline 95 % of control | endpoint: mean survival time, dose: 400.0 mg/kg/injection, schedule: Q04DX003 (ip), vehicle: saline 97 % of control

ON=C1c2c(ccc3ccccc23)-c2ccc3ccccc3c21
inactive: [12] 95 % of control | [8] 98 % of control | endpoint: mean survival time, dose: 200.0 mg/kg/injection, schedule: Q01DX001 (ip), vehicle: saline with Tween-80 96 % of control | [9] 95 % of control | [13] 102 % of control | [10] 93 % of control

COc1ccc2c(c1)CCC1C2CCC2(C)C(=O)NC(=O)N12 (stereo not given)
inactive: endpoint: mean survival time, dose: 25.0 mg/kg/injection, schedule: Q04DX002 (ip), vehicle: saline with Tween-80 93 % of control | endpoint: mean survival time, dose: 50.0 mg/kg/injection, schedule: Q04DX002 (ip), vehicle: saline with Tween-80 86 % of control | [12] 86 % of control | endpoint: mean survival time, dose: 100.0 mg/kg/injection, schedule: Q04DX002 (ip), vehicle: saline with Tween-80 86 % of control and 90 % of control | [13] 93 % of control | endpoint: mean survival time, dose: 400.0 mg/kg/injection, schedule: Q04DX002 (ip), vehicle: saline with Tween-80 86 % of control

OCC1OC(n2cnc3c(Cl)nccc32)C(O)C1O (stereo not given)
inactive: endpoint: median survival time, dose: 9.63 mg/kg/injection, schedule: Q01DX005 (ip), vehicle: saline 100 % of control | endpoint: median survival time, dose: 19.25 mg/kg/injection, schedule: Q01DX005 (ip), vehicle: saline 104 % of control | endpoint: median survival time, dose: 38.5 mg/kg/injection, schedule: Q01DX005 (ip), vehicle: saline 94 % of control | endpoint: median survival time, dose: 77.0 mg/kg/injection, schedule: Q01DX005 (ip), vehicle: saline 108 % of control | endpoint: median survival time, dose: 154.0 mg/kg/injection, schedule: Q01DX005 (ip), vehicle: saline 101 % of control

Clc1ccc(OCCOc2ccc(Cl)cc2Cl)c(Cl)c1
inactive: [5] 95 % of control | [6] 106 % of control | [7] 100 % of control

Cn1c(-c2ccccc2)cc(=O)cc1-c1ccccc1
inactive: [11] 96 % of control | [8] 93 % of control | [5] 91 % of control | [9] 94 % of control | [6] 97 % of control

C=CCNC1CCS(=O)(=O)C1 (stereo not given)
inactive: endpoint: mean survival time, dose: 50.0 mg/kg/injection, schedule: Q01DX009 (ip), vehicle: saline 104 % of control | endpoint: mean survival time, dose: 100.0 mg/kg/injection, schedule: Q01DX009 (ip), vehicle: saline 97 % of control | endpoint: mean survival time, dose: 200.0 mg/kg/injection, schedule: Q01DX009 (ip), vehicle: saline 104 % of control

O=C1C=C[C@H](O)[C@@]2(CO)O[C@@H]12
inactive: endpoint: median survival time, dose: 0.31 mg/kg/injection, schedule: Q01DX009 (ip), vehicle: saline with Tween-80 102 % of control | endpoint: median survival time, dose: 0.62 mg/kg/injection, schedule: Q01DX009 (ip), vehicle: saline with Tween-80 101 % of control | endpoint: median survival time, dose: 1.25 mg/kg/injection, schedule: Q01DX009 (ip), vehicle: saline with Tween-80 118 % of control and 110 % of control | endpoint: median survival time, dose: 2.5 mg/kg/injection, schedule: Q01DX009 (ip), vehicle: saline with Tween-80 121 % of control and 123 % of control | endpoint: median survival time, dose: 5.0 mg/kg/injection, schedule: Q01DX009 (ip), vehicle: saline with Tween-80 114 % of control | endpoint: median survival time, dose: 10.0 mg/kg/injection, schedule: Q01DX009 (ip), vehicle: saline with Tween-80 118 % of control

OCC1OC(n2ccc3c2ncn2cnnc32)C(O)C1O (stereo not given)
inactive: endpoint: mean survival time, dose: 6.25 mg/kg/injection, schedule: Q01DX005 (ip), vehicle: water 104 % of control | endpoint: mean survival time, dose: 12.5 mg/kg/injection, schedule: Q01DX005 (ip), vehicle: water 103 % of control | endpoint: mean survival time, dose: 25.0 mg/kg/injection, schedule: Q01DX005 (ip), vehicle: water 92 % of control | endpoint: mean survival time, dose: 50.0 mg/kg/injection, schedule: Q01DX005 (ip), vehicle: water 92 % of control | endpoint: mean survival time, dose: 100.0 mg/kg/injection, schedule: Q01DX005 (ip), vehicle: water 92 % of control | endpoint: mean survival time, dose: 200.0 mg/kg/injection, schedule: Q01DX005 (ip), vehicle: water 89 % of control | endpoint: mean survival time, dose: 400.0 mg/kg/injection, schedule: Q01DX005 (ip), vehicle: water 95 % of control

O=[N+]([O-])c1ccc(Oc2c(Cl)cc(Cl)c(Cl)c2Cl)c([N+](=O)[O-])c1
inactive: endpoint: mean survival time, dose: 75.0 mg/kg/injection, schedule: Q01DX001 (ip), vehicle: other 100 % of control | endpoint: mean survival time, dose: 150.0 mg/kg/injection, schedule: Q01DX001 (ip), vehicle: other 102 % of control | endpoint: mean survival time, dose: 300.0 mg/kg/injection, schedule: Q01DX001 (ip), vehicle: other 94 % of control

CC1NC(=O)OC1(C)C(C)(C)C (stereo not given)
inactive: endpoint: mean survival time, dose: 5.0 mg/kg/injection, schedule: Q01DX009 (ip), vehicle: saline with Tween-80 94 % of control | endpoint: mean survival time, dose: 10.0 mg/kg/injection, schedule: Q01DX009 (ip), vehicle: saline with Tween-80 104 % of control | endpoint: mean survival time, dose: 20.0 mg/kg/injection, schedule: Q01DX009 (ip), vehicle: saline with Tween-80 102 % of control

CN(C)c1ccc(C(=O)c2ccc(N(C)C)cc2)cc1
inactive: [8] 96 % of control | [9] 102 % of control | [10] 109 % of control

Cc1ncnc2c1ncn2C1OC(CO)C(O)C1O (stereo not given)
inactive: endpoint: mean survival time, dose: 0.25 mg/kg/injection, schedule: Q01DX005 (ip), vehicle: saline 113 % of control | endpoint: mean survival time, dose: 0.5 mg/kg/injection, schedule: Q01DX005 (ip), vehicle: saline 112 % of control | endpoint: mean survival time, dose: 1.0 mg/kg/injection, schedule: Q01DX005 (ip), vehicle: saline 124 % of control | endpoint: mean survival time, dose: 4.0 mg/kg/injection, schedule: Q01DX005 (ip), vehicle: saline 113 % of control

O=C1C(O)CC(c2ccccc2)N1c1ccccc1 (stereo not given)
inactive: [5] 95 % of control | [6] 95 % of control | [7] 100 % of control

Cn1cccnc1=O
inactive: endpoint: mean survival time, dose: 100.0 mg/kg/injection, schedule: Q04DX002 (ip), vehicle: saline 106 % of control | endpoint: mean survival time, dose: 200.0 mg/kg/injection, schedule: Q04DX002 (ip), vehicle: saline 95 % of control | endpoint: mean survival time, dose: 400.0 mg/kg/injection, schedule: Q04DX002 (ip), vehicle: saline 106 % of control
